From publication PMC8493129, “Design and Synthesis of New Quinoxaline Derivatives as Potential Histone Deacetylase Inhibitors Targeting Hepatocellular Carcinoma: In Silico, In Vitro, and SAR Studies” (Frontiers in Chemistry, 2021)

Tests used:
[1] = system: HuH-7 liver cancer cell line; experiment: Anti-proliferative activity (MTT / SRB assay), HuH-7; format: cell-based, human; conditions: for IC50: Homo sapiens, mean of three separate experiments
Protocol: (§1) The new quinoxaline derivatives of the five series: 6, 7, 8, 9, and 10 were evaluated for their potential anti-proliferative activity against two liver cancer cell lines (HepG-2 and HuH-7) obtained from the American Type Culture Collection.

[2] = system: HepG-2 liver cancer cell line; experiment: Anti-proliferative activity (MTT / SRB assay), HepG-2; format: cell-based, human; conditions: for IC50: Homo sapiens, HepG2, mean of three separate experiments
Protocol: as §1

HDAC6 = molecular target: T1, HDAC6 (Homo sapiens, UniProt Q9UBN7); experiment: Histone deacetylase inhibition, homogeneous fluorescence release assay
T1 sequence (Q9UBN7 1-1215): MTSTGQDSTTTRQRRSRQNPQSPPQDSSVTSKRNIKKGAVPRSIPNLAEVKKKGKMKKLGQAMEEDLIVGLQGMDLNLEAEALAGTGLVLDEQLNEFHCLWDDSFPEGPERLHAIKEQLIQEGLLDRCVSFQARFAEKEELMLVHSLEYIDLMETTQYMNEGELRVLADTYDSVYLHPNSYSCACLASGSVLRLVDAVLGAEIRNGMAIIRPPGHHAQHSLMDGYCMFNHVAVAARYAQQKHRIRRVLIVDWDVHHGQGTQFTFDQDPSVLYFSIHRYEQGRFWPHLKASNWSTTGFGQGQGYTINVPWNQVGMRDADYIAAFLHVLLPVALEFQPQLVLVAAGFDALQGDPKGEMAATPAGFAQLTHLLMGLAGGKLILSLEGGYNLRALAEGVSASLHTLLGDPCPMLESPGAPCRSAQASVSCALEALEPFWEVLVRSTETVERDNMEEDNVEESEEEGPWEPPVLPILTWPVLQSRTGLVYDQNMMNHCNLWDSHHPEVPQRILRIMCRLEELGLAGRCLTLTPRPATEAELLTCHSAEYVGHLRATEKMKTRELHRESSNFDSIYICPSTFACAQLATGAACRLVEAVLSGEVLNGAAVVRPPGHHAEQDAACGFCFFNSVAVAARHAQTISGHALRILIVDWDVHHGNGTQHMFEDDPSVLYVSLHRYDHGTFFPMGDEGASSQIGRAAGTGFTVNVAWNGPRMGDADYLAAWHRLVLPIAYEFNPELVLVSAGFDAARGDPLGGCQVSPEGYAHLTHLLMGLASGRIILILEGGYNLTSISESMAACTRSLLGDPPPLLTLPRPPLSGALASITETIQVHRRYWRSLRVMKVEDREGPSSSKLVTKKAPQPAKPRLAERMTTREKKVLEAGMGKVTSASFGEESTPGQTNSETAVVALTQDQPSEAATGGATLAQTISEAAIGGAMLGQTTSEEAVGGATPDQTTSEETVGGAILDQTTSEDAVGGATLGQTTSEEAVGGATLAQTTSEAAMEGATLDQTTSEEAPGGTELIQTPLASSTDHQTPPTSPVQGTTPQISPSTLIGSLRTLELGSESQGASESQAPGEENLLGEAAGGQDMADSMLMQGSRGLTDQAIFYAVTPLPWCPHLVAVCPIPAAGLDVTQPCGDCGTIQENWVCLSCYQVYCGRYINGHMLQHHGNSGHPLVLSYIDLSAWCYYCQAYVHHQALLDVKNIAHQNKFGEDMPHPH

Bax = experiment: Apoptotic marker level (Bax) in HepG-2 cells; format: cell-based, human; conditions: control 24.37 pg/ml
Protocol: (§2) The method was performed in detail as previously explained ([Eliaa et al., 2020]).

HDAC4 = HDAC4 (Homo sapiens, UniProt P56524); experiment: Histone deacetylase inhibition, homogeneous fluorescence release assay
Chain of HDAC4 (P56524 whole entry): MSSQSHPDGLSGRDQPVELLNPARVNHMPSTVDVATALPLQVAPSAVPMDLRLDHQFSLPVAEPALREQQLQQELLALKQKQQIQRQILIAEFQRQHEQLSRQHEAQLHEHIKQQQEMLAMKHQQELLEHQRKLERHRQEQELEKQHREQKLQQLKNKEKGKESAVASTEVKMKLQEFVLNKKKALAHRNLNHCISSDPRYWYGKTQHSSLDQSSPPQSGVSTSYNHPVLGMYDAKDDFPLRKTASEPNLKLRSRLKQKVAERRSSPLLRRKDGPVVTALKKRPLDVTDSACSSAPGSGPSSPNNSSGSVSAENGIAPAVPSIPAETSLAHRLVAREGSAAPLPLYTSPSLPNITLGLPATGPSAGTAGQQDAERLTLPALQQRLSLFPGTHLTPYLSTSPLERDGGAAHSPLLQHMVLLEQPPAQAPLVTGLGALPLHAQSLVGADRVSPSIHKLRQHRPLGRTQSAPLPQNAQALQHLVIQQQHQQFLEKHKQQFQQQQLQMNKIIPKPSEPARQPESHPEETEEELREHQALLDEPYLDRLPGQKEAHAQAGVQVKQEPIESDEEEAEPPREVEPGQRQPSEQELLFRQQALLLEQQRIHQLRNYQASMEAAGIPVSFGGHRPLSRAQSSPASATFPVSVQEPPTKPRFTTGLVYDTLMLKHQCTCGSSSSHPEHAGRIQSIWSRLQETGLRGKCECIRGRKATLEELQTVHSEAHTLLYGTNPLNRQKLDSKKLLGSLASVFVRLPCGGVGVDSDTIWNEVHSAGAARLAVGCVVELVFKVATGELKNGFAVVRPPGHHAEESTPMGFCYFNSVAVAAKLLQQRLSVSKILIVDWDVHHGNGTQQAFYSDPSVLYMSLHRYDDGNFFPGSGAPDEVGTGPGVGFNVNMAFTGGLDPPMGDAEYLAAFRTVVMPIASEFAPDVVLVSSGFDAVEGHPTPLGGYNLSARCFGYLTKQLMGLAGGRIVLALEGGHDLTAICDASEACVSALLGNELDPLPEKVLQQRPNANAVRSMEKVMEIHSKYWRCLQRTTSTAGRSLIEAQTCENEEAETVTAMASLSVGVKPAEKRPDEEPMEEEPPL

Bcl-2 = experiment: Anti-apoptotic marker level (Bcl-2) in HepG-2 cells; format: cell-based, human; conditions: control 5.048 pg/ml
Protocol: as §2

HDAC1 = HDAC1 (Homo sapiens, UniProt Q13547); experiment: Histone deacetylase inhibition, homogeneous fluorescence release assay
Chain of HDAC1 (Q13547 whole entry): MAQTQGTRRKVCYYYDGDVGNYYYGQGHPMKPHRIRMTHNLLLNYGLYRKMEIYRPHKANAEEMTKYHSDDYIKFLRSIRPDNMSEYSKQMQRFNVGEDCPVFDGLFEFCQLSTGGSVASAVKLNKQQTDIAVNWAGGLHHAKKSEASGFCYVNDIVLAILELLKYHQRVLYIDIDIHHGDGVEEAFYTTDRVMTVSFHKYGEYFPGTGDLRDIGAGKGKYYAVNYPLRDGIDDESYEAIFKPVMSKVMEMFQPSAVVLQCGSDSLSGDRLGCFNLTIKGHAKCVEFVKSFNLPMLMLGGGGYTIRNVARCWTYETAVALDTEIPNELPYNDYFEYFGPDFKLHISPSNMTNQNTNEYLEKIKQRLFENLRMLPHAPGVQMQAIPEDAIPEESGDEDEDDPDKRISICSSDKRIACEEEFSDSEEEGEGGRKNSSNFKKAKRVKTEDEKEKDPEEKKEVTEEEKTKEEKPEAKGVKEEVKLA

[3] = system: HepG-2 and HuH-7 liver cancer cell lines; experiment: Anti-proliferative activity, statements covering both cell lines; format: cell-based, human; conditions: class by IC50 on HepG-2 and HuH-7
Protocol: as §1

SMILES | IC50 [1] | IC50 ([2]; HepG-2) | IC50 (HDAC6) | IC50 (HDAC4) | IC50 (HDAC1) | Bax (Bax) | Bcl-2 (Bcl-2) | also measured
Clc1nc2ccccc2nc1NN=Cc1ccccc1 [Compound 6 a, 2-(2-Benzylidenehydrazinyl)-3-chloroquinoxaline] | 18.2 µM | 14.3 µM |  |  |  |  |  | 
Clc1ccccc1C=NNc1nc2ccccc2nc1Cl [Compound 6 b, 2-Chloro-3-(2-(2-chlorobenzylidene)hydrazinyl)quinoxaline] | 18.7 µM | 15.8 µM |  |  |  |  |  | 
Clc1ccc(C=NNc2nc3ccccc3nc2Cl)c(Cl)c1 [Compound 6 d, 2-Chloro-3-(2-(2,4-dichlorobenzylidene)hydrazinyl)quinoxaline] | 9.47 µM | 6.16 µM | 4.28 µM | 3.25 µM | 3.52 µM | 179.2 pg/mL | 2.711 pg/mL | 
Clc1cccc(Cl)c1C=NNc1nc2ccccc2nc1Cl [Compound 6 e, 2-Chloro-3-(2-(2,6-dichlorobenzylidene)hydrazinyl)quinoxaline] | 17.5 µM | 13.5 µM |  |  |  |  |  | 
COc1ccccc1C=NNc1nc2ccccc2nc1Cl [Compound 6 f, 2-Chloro-3-(2-(2-methoxybenzylidene)hydrazinyl)quinoxaline] | 8.52 µM | 6.63 µM | 5.32 µM | 3.44 µM | 3.29 µM | 185.7 pg/mL | 2.705 pg/mL | 
COc1ccc(C=NNc2nc3ccccc3nc2Cl)cc1OC [Compound 6 g, 2-Chloro-3-(2-(3,4-dimethoxybenzylidene)hydrazinyl)quinoxaline] | 3.05 µM | 2.16 µM | 3.81 µM | 1.64 µM | 2.17 µM | 247.5 pg/mL | 1.687 pg/mL | 
COc1cc(C=NNc2nc3ccccc3nc2Cl)cc(OC)c1OC [Compound 6 h, 2-Chloro-3-(2-(3,4,5-trimethoxybenzylidene)hydrazinyl)quinoxaline] | 14.7 µM | 11.8 µM |  |  |  |  |  | 
O=[N+]([O-])c1cccc(C=NNc2nc3ccccc3nc2Cl)c1 [Compound 6 i, 2-Chloro-3-(2-(3-nitrobenzylidene)hydrazinyl)quinoxaline] | 65.7 µM | 63.9 µM |  |  |  |  |  | 
O=[N+]([O-])c1ccc(C=NNc2nc3ccccc3nc2Cl)cc1 [Compound 6 j, 2-Chloro-3-(2-(4-nitrobenzylidene)hydrazinyl)quinoxaline] | 25.8 µM | 15.9 µM |  |  |  |  |  | 
Oc1ccccc1C=NNc1nc2ccccc2nc1Cl [Compound 6 k, 2-((2-(3-Chloroquinoxalin-2-yl)hydrazono)methyl)phenol] | 6.52 µM | 7.71 µM | 6.29 µM | 3.81 µM | 4.18 µM | 164.3 pg/mL | 2.914 pg/mL | 
CN(C)c1ccc(C=NNc2nc3ccccc3nc2Cl)cc1 [Compound 6 l, 4-((2-(3-Chloroquinoxalin-2-yl)hydrazono)methyl)-N,N-dimethylaniline] | 9.27 µM | 5.39 µM | 4.09 µM | 2.79 µM | 3.29 µM | 219.7 pg/mL | 2.519 pg/mL | 
CC(=NNc1nc2ccccc2nc1Cl)c1ccccc1 [Compound 7 a, 2-Chloro-3-(2-(1-phenylethylidene)hydrazinyl)quinoxaline] | 37.1 µM | 28.5 µM |  |  |  |  |  | 
CC(=NNc1nc2ccccc2nc1Cl)c1ccccc1O [Compound 7 b, 2-(1-(2-(3-Chloroquinoxalin-2-yl)hydrazono)ethyl)phenol] | 6.19 µM | 4.03 µM | 5.24 µM | 2.51 µM | 2.67 µM | 217.9 pg/mL | 2.371 pg/mL | cytotoxic (anti-proliferative) activity class [3]: very strong (1–10 (very strong))
Oc1ccc2ccccc2c1C=NNc1nc2ccccc2nc1Cl [Compound 8, 1-((2-(3-Chloroquinoxalin-2-yl)hydrazono)methyl)naphthalen-2-ol] | 6.14 µM | 3.88 µM | 4.37 µM | 2.09 µM | 1.72 µM | 233.6 pg/mL | 1.839 pg/mL | fold increase in activity versus corresponding member 11, HuH-7 ([1]; ratio of IC50 values): 3.30 fold; cytotoxic (anti-proliferative) activity class [3]: very strong (1–10 (very strong)); fold increase in activity versus corresponding member 11, HepG-2 ([2]; ratio of IC50 values, HepG-2): 4.76 fold; fold more active than compound 9 ([2]; ratio of IC50 values, stated for the two cell lines, figure fits HepG-2): 2.98 fold
COc1cc(C=NNc2nc3ccccc3nc2OC)cc(OC)c1OC [Compound 10 f, 2-Methoxy-3-(2-(3,4,5-trimethoxybenzylidene)hydrazinyl)quinoxaline] | 48.8 µM | 56.9 µM |  |  |  |  |  | 
COc1nc2ccccc2nc1NN=Cc1ccc([N+](=O)[O-])cc1 [Compound 10 g, 2-Methoxy-3-(2-(4-nitrobenzylidene)hydrazinyl)quinoxaline] | 19.1 µM | 13 µM |  |  |  |  |  | 
COc1nc2ccccc2nc1NN=Cc1c(O)ccc2ccccc12 [Compound 11, 1-((2-(3-Methoxyquinoxalin-2-yl)hydrazono)methyl)naphthalen-2-ol] | 20.3 µM | 18.5 µM |  |  |  |  |  | cytotoxic (anti-proliferative) activity class [3]: strong (11–20 (strong))

Continued, in another order:

IC50 [1] | IC50 ([2]; HepG-2) | IC50 (HDAC6) | IC50 (HDAC4) | IC50 (HDAC1) | SMILES | Bax (Bax) | Bcl-2 (Bcl-2) | also measured
16.4 µM | 11.6 µM |  |  |  | O=C1Nc2ccccc2/C1=N\Nc1nc2ccccc2nc1Cl [Compound 9, 2-(2-(3-Chloroquinoxalin-2-yl)hydrazono)indolein-3-one] |  |  | cytotoxic (anti-proliferative) activity class [3]: strong (11–20 (strong))
57.8 µM | 53.9 µM |  |  |  | COc1nc2ccccc2nc1NN=Cc1ccc(Cl)cc1 [Compound 10 a, 2-(2-(4-Chlorobenzylidene)hydrazinyl)-3-methoxyquinoxaline] |  |  | 
35.2 µM | 32.1 µM |  |  |  | COc1nc2ccccc2nc1NN=Cc1ccc(Cl)cc1Cl [Compound 10 b, 2-(2-(2,4-Dichlorobenzylidene)hydrazinyl)-3-methoxyquinoxaline] |  |  | 
65.3 µM | 60.5 µM |  |  |  | COc1nc2ccccc2nc1NN=Cc1c(Cl)cccc1Cl [Compound 10 c, 2-(2-(2,6-Dichlorobenzylidene)hydrazinyl)-3-methoxyquinoxaline] |  |  | 
27.3 µM | 28.6 µM |  |  |  | COc1ccccc1C=NNc1nc2ccccc2nc1OC [Compound 10 d, 2-Methoxy-3-(2-(2-methoxybenzylidene)hydrazinyl)quinoxaline] |  |  | 
50.6 µM | 55.7 µM |  |  |  | COc1ccc(C=NNc2nc3ccccc3nc2OC)cc1OC [Compound 10 e, 2-(2-(3,4-Dimethoxybenzylidene)hydrazinyl)-3-methoxyquinoxaline] |  |  | 
6.72 µM | 5.56 µM | 7.21 µM | 3.15 µM | 3.54 µM | COc1nc2ccccc2nc1NN=Cc1ccccc1O [Compound 10 h, 2-((2-(3-Methoxyquinoxalin-2-yl)hydrazono)methyl)phenol] | 205.4 pg/mL | 2.673 pg/mL | 
22.7 µM | 23 µM |  |  |  | COc1nc2ccccc2nc1NN=Cc1ccc(N(C)C)cc1 [Compound 10 i, 4-((2-(3-Methoxyquinoxalin-2-yl)hydrazono)methyl)-N,N-dimethylaniline] |  |  | 
9.2 ± 0.65 µM | 8.25 µM |  |  |  | COc1cccc2c1C(=O)c1c(O)c3c(c(O)c1C2=O)C[C@@](O)(C(=O)CO)C[C@@H]3O[C@H]1C[C@H](N)[C@H](O)[C@H](C)O1 [Doxorubicin, reference compound] |  |  | 
